This is an account of results in patent publication US10245240B2, “Treatment of prostate carcinoma” (Pellficure Pharmaceuticals, Inc., priority 2010, dated 2019).

This series concerns PTEN-P2/GFP prostate cancer cells. Briefly: Effect of naphthoquinone analogs on PTEN-P2/GFP cell proliferation (CellTiter96 formazan-based viability assay). The note with it: for IC50 / viability at 1 µM / viability at 2 µM / viability at 3 µM / viability at 4 µM / viability at 5 µM / viability at 7 µM / viability at 10 µM / viability at 25 µM / viability at 50 µM: Mus musculus, 24 h; for % viability: 24 hrs, listed as 2,6-di-tert-butyl-1,4-naphtoquinone.

Setting [1] is: 1 μM, medium with 10% FBS and DHT.
Setting [2] is: 2 μM, medium with 10% FBS and DHT.
[3] abbreviates: 3 μM, medium with 10% FBS and DHT.
[4] abbreviates: 4 μM, medium with 10% FBS and DHT.
[5] abbreviates: 5 μM, medium with 10% FBS and DHT.
Setting [6] is: 7 μM, medium with 10% FBS and DHT.
The mark [7] stands for this setting: 10 μM, medium with 10% FBS and DHT.
[8] abbreviates: 25 μM, medium with 10% FBS and DHT.
[9] abbreviates: 50 μM, medium with 10% FBS and DHT.

Method: Cell culture: PTEN-P2/GFP are cells that stably express histone H2B-GFP fusion protein.
Cells are grown in DMEM medium containing 10% FBS, 2 mM L-glutamine, 100 U/ml penicillin/100 μg/ml streptomycin, insulin-selenium-transferrin (5 μg/ml insulin), and DHT 10^−8 M final. Androgen withdrawal is achieved by keeping the cells in phenol red-free DMEM medium containing 10% charcoal-treated FBS and the same supplements as in the normal medium except for DHT. Cells are maintained in a humidified incubator at 37° C. and 5% CO2. G418 (100 μg/ml) is added to maintain stable expression of H2B-GFP.
PTEN-P2/GFP prostate cancer cells were plated at a density of 8000 cells/well in 96-well plates (triplicates) in growing medium containing 10% Fetal Bovine Serum and DHT. The next day, increasing concentrations of a naphthoquinone analog (diluted from 10 mM DMSO stock solutions) were incubated for 24 hrs. Cell viability was determined by the formazan-based cytotoxicity assay “CellTiter96Aquaeous nonradioactive proliferation assay” (Promega).

For the compound `O=C1C=CC(=O)c2ccccc21` [1,4-naphthoquinone], the IC50 worked out at 24.1 µM. Moreover, the viability at 1 µM under setting [1] is 100%. In addition, under setting [2], the viability at 2 µM came to 97%. Further, the viability at 3 µM under setting [3] turned out to be 93.9%. For the same compound, the viability at 4 µM under setting [4] turned out to be 90.4%. Also, the viability at 5 µM under setting [5] worked out at 90.1%. Also, the viability at 7 µM under setting [6] came to 88.7%. Moreover, under setting [7], the viability at 10 µM came out at 83%. Also, the viability at 25 µM under setting [8] came to 47.3%. For the same compound, under setting [9], the viability at 50 µM came to 0.1%.

Turning to `CC(C)(C)C1=CC(=O)c2cc(C(C)(C)C)ccc2C1=O` [2,6-di-tert-butyl-1,4-naphthoquinone], the “% viability” value runs as follows: under setting [2], 104.5%; under setting [3], 104.7%; under setting [4], 103.0%; under setting [5], 104.0%; under setting [6], 102.8%; under setting [7], 102.2%. In addition, the “% viability” value under setting [8] is on record as 102.9% and the “% viability” value under setting [9] is on record as 92.9%. Further, the viability at 1 µM under setting [1] turned out to be 104%.

Consider `COC1=CC(=O)c2ccccc2C1=O` [2-methoxy-1,4-naphthoquinone], for which the IC50 came out at 8.95 µM. Besides, the viability at 1 µM under setting [1] turned out to be 93.1%. Further, the viability at 2 µM under setting [2] was 88.4%. In addition, the viability at 3 µM under setting [3] was 86.9%. Besides, the viability at 4 µM under setting [4] stood at 85%. The viability at 5 µM under setting [5] is 82.5%. In addition, the viability at 7 µM under setting [6] was 67.2%. The viability at 10 µM under setting [7] came out at 43.5%. Also, under setting [8], the viability at 25 µM worked out at 0.3%.

Compound `COC1=C(OC)C(=O)c2ccccc2C1=O` [DMNQ, 2,3-Dimethoxy-1,4-naphthoquinone] gave an IC50 of 7.35 µM. For the same compound, the viability at 1 µM under setting [1] was found to be 95%. The viability at 2 µM under setting [2] came out at 91%. In addition, the viability at 3 µM under setting [3] amounted to 88.5%. The viability at 4 µM under setting [4] is 85.9%. Besides, the viability at 5 µM under setting [5] is 85.3%. Further, the viability at 7 µM under setting [6] was 58.3%. Moreover, the viability at 10 µM under setting [7] was found to be 2.4%. Besides, the viability at 25 µM under setting [8] turned out to be 0.9%. Under setting [9], the viability at 50 µM worked out at 0.8%.

For `O=C1C(Cl)=C(Cl)C(=O)c2ccccc21` [Dichlon], the IC50 came to 37.8 µM, the viability at 1 µM stood at 96.5%, the viability at 2 µM came out at 95.6% and the viability at 3 µM worked out at 92.3%. The viability at 4 µM is 92.2%, the viability at 5 µM was 91.8%, the viability at 7 µM is 99.3% and the viability at 10 µM was determined as 87.1%. The viability at 25 µM turned out to be 89.2% and the viability at 50 µM was found to be 4.9%.

For the compound `O=C1C=CC(=O)c2c(O)cccc21` [Juglone], 5.3 µM corresponded to half-maximal inhibition (IC50). Besides, the viability at 1 µM under setting [1] is 90.7%. For the same compound, the viability at 2 µM under setting [2] was 85.1%. Besides, the viability at 3 µM under setting [3] was found to be 80.6%. Besides, the viability at 4 µM under setting [4] turned out to be 80.5%. Besides, the viability at 5 µM under setting [5] is 58.2%. Under setting [6], the viability at 7 µM amounted to 2.3%. Also, under setting [7], the viability at 10 µM was 1.1%. Further, under setting [8], the viability at 25 µM worked out at 2.5%. Besides, the viability at 50 µM under setting [9] worked out at 5.3%.

For the compound `CC(C)=CCC1=C(O)C(=O)c2ccccc2C1=O` [Lapachol], the IC50 is above 50 µM. Moreover, the viability at 1 µM under setting [1] is 106%. Further, the viability at 2 µM under setting [2] stood at 105%. Further, the viability at 3 µM under setting [3] was found to be 102%. Further, under setting [4], the viability at 4 µM was determined as 103%. Moreover, the viability at 5 µM under setting [5] amounted to 99.8%. The viability at 7 µM under setting [6] came to 99.7%. Further, the viability at 10 µM under setting [7] came out at 99.6%. Also, the viability at 25 µM under setting [8] amounted to 96.2%. Under setting [9], the viability at 50 µM was 86.1%.

In turn, `O=C1C(O)=C(C2=C(O)C(=O)c3ccccc3C2=O)C(=O)c2ccccc21` [Lawsone dimer] had an IC50 above 50 µM. Further, under setting [1], the viability at 1 µM was 98.3%. The viability at 2 µM under setting [2] worked out at 98.6%. Under setting [3], the viability at 3 µM was 97.4%. For the same compound, the viability at 4 µM under setting [4] turned out to be 95.1%. Also, the viability at 5 µM under setting [5] worked out at 96.8%. Under setting [6], the viability at 7 µM was 96.1%. Moreover, under setting [7], the viability at 10 µM turned out to be 98.6%. Further, under setting [8], the viability at 25 µM was found to be 99.4%. Besides, under setting [9], the viability at 50 µM stood at 97.9%.

`O=C1C=C(O)C(=O)c2ccccc21` [Lawsone] came in with an IC50 above 50 µM. In addition, under setting [1], the viability at 1 µM worked out at 90.1%. Also, the viability at 2 µM under setting [2] was 85.1%. Also, the viability at 3 µM under setting [3] is 81.3%. Further, the viability at 4 µM under setting [4] amounted to 82.5%. In addition, the viability at 5 µM under setting [5] is 80.4%. Besides, the viability at 7 µM under setting [6] amounted to 80.3%. Moreover, under setting [7], the viability at 10 µM amounted to 83.1%. Also, the viability at 25 µM under setting [8] came to 87%. The viability at 50 µM under setting [9] came to 96%.

With `CC1=CC(=O)c2ccccc2C1=O` [Menadione, menadione], the IC50 came out at 14.5 µM. For the same compound, the viability at 1 µM under setting [1] worked out at 95%. Besides, the viability at 2 µM under setting [2] stood at 93.1%. Also, the viability at 3 µM under setting [3] turned out to be 90.2%. Further, the viability at 4 µM under setting [4] stood at 93.5%. In addition, under setting [5], the viability at 5 µM was found to be 89.4%. For the same compound, the viability at 7 µM under setting [6] was found to be 94%. Moreover, under setting [7], the viability at 10 µM was 77.5%. Moreover, the viability at 25 µM under setting [8] was determined as 2.4%. Moreover, under setting [9], the viability at 50 µM worked out at 2.9%.

Consider `O=C1C(SCCO)=C(SCCO)C(=O)c2ccccc21` [NSC 95397, 2,3-Bis[(2-hydroxyethyl)thio]-1,4-naphthoquinone], for which the IC50 is 6.2 µM. In addition, the viability at 1 µM under setting [1] was found to be 104%. Besides, the viability at 2 µM under setting [2] was 101%. Further, the viability at 3 µM under setting [3] came out at 86.6%. Also, the viability at 4 µM under setting [4] was 68.4%. The viability at 5 µM under setting [5] stood at 53.8%. Also, under setting [6], the viability at 7 µM was 47.1%. The viability at 10 µM under setting [7] was 36.3%. Further, the viability at 25 µM under setting [8] came out at 15.1%. Also, under setting [9], the viability at 50 µM came to 4.8%.

As for `O=C1C=CC(=O)c2c(O)ccc(O)c21` [Naphthazarin], the IC50 was 1.65 µM, the viability at 1 µM was determined as 73.4%, the viability at 2 µM came out at 36.4% and the viability at 3 µM is 8.9%. Further, the viability at 4 µM worked out at 1.5%, the viability at 5 µM was found to be 1.7%, the viability at 7 µM was found to be 2.2% and the viability at 10 µM worked out at 2.4%. Further, the viability at 25 µM amounted to 5.4% and the viability at 50 µM amounted to 9.1%.

One may read the IC50 as the point on the concentration scale where inhibition reaches its midpoint. The viability is a read-out of living cells in per cent, often relative to untreated cells.
